The numbers were not newly measured in US20240052003A1, “COMPOSITIONS COMPRISING PEDF-DERIVED SHORT PEPTIDES (PDSP) AND USES THEREOF” (BRIM Biotechnology, Inc., priority 2019, published 2024), which cites them from elsewhere.

The series relates to eye. The following applies: ocular application.

As for `NC(=O)c1cccnc1` [nicotinamide], the Eye irritation result is on record as “may cause eye irritation”.
